This passage reports IC50 and Ki results from patent publication US7868026B2, “Therapeutic compounds” (Pfizer Inc., priority 2005, dated 2011).

Like-named read-outs stand apart in the source and are kept apart here.

In general, IC50 refers to the concentration needed to halve the response being measured.

Holding throughout (format): biochemical
The target in assay [1] is T1, CYP3A4 (Homo sapiens, UniProt P08684). The assay can be described thus: Determination of IC50 against CYP3A4 by measurement of inhibition of midazolam metabolism (human liver microsomes, 1-hydroxymidazolam by LC-MS/MS). Further details: 0.1 mg/mL human liver microsomes. The settings on record: 2 μM midazolam, 0.1 mg/mL human liver microsomes. The procedure, abridged: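 Human liver microsomes (0.1 mg/mL) incubated 8 min with 2 μM midazolam and 1 mM NADPH in 100 mM potassium phosphate, pH 7.4. 1-Hydroxymidazolam quantified by LC-MS/MS (MRM) as peak area ratio to internal standard against a metabolite standard curve.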

Assay [2] concerns the target T1, CYP3A4. The assay can be described thus: Determination of IC50 against CYP3A4 by measurement of inhibition of testosterone metabolism (human liver microsomes, 6-β-OH-testosterone by LC-MS/MS). Particulars: read-out: IC50 (Testo.). On the set-up: 0.1 mg/mL human liver microsomes. The procedure, abridged:
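6-β-OH-testosterone formation was read by LC-MS/MS (MRM, internal standard, standard curve) after eight minutes. Reaction contained testosterone 25 μM, NADPH 1 mM and microsomal protein 0.1 mg/mL in pH 7.4 potassium phosphate (100 mM).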
(In general: Liver microsomes are vesicles of endoplasmic reticulum, rich in cytochrome P450 enzymes.)

The target in assay [3] is T1, CYP3A4. Briefly: Determination of compound Kiapp against recombinant CYP3A4 enzyme (BFC fluorescent substrate). The procedure, abridged:
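Kiapp derived from initial velocities over the first 5 min of BFC (5 uM) oxidation, using Morrison's tight-binding equation for non-partial and Szedlacsek's for partial inhibitors. Inhibitor first pre-incubated ≥30 min with CYP3A4 (5.5 or 8 nM, ±b5) in pH 7.0 phosphate/TCEP/2% DMF at room temperature; 200 uM NADPH initiated.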

Where [4] appears, read: Baculo. enzyme preparation, read-out: Kiapp (BFC, Baculo.).
Setting [5] is: Super. enzyme preparation, read-out: Kiapp (BFC, Super.).

T1 sequence (P08684 whole entry): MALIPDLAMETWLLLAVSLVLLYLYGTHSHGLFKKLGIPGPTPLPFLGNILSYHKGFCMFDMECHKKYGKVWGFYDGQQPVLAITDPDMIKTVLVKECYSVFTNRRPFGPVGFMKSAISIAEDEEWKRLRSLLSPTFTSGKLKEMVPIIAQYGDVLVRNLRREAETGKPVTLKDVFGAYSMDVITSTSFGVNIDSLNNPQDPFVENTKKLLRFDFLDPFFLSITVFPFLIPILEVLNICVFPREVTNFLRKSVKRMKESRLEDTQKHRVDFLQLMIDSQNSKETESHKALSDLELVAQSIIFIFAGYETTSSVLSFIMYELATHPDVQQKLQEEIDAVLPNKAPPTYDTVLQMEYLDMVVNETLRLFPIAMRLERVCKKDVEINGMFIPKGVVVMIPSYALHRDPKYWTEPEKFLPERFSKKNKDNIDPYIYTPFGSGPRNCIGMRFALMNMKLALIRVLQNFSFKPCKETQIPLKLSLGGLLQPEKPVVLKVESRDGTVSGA

On to `COc1cncc(NS(=O)(=O)c2ccc(OCCCN(C)C)cc2C(=O)N(C)C(C)C)c1` [Example 248, 5-[3-(dimethylamino)propoxy]-N-isopropyl-2-{[(5-methoxypyridin-3-yl)amino]sulfonyl}-N-methylbenzamide], for which the IC50 in assay [1] is 108 nM; in assay [2], 235 nM. The figures for the Ki in assay [3] (setting [4]) and in assay [3] (setting [5]) were 439 nM and 193 nM, respectively.

Turning to `CCOc1ccncc1NS(=O)(=O)c1ccccc1C(=O)NC(C)(C)C` [Example 249, N-(tert-butyl)-2-{[(4-ethoxy-pyridin-3-yl)amino]sulfonyl} benzamide], the results for the IC50 in assay [1] and in assay [2] were 28.5 nM and 45 nM, respectively. Moreover, the Ki in assay [3] (setting [4]) came out at 60.1 nM; in assay [3] (setting [5]), 37.7 nM.

On to `CCOc1ccncc1NS(=O)(=O)c1ccccc1C(=O)NCc1ccc(F)c(C(F)(F)F)c1` [Example 250, 2-{[(4-ethoxypyridin-3-yl)amino]sulfonyl}-N-[4-fluoro-3-(trifluoromethyl)benzyl]benzamide], for which the IC50 in assay [1] worked out at 10 nM; in assay [2], 7 nM. For the same compound, the Ki in assay [3] (setting [4]) is 4.3 nM; in assay [3] (setting [5]), 3.14 nM.

On to `CCOc1ccncc1NS(=O)(=O)c1ccccc1C(=O)N(C)Cc1ccc(F)c(F)c1` [Example 251, N-(3,4-difluorobenzyl)-2-{[(4-ethoxypyridin-3-yl)amino]sulfonyl}-N-methylbenzamide], for which the IC50 turned out to be 10 nM in assay [1] and 12 nM in assay [2]. Also, the figures for the Ki in assay [3] (setting [4]) and in assay [3] (setting [5]) were 8.6 nM and 5.31 nM, respectively.

In the case of `CCOc1ccncc1NS(=O)(=O)c1ccccc1C(=O)NCc1ccc(F)c(F)c1` [Example 252, N-(3,4-difluorobenzyl)-2-{[(4-ethoxypyridin-3-yl)amino]sulfonyl}benzamide], the IC50 in assay [1] and in assay [2] was 9 nM throughout. The results for the Ki in assay [3] (setting [4]) and in assay [3] (setting [5]) were 17.1 nM and 5.41 nM, respectively.

As to `COc1cncc(NS(=O)(=O)c2ccc(OCCN3CCNCC3)cc2C(=O)NCc2ccc(F)cc2)c1` [Example 253, N-(4-fluorobenzyl)-2-{[(5-methoxypyridin-3-yl)amino]sulfonyl}-5-(2-piperazin-1-ylethoxy)benzamide], the IC50 in assay [1] worked out at 50 nM; in assay [2] it was 80 nM. In addition, the Ki in assay [3] (setting [4]) was 203 nM; in assay [3] (setting [5]), 35.2 nM.

With `COc1ccncc1NS(=O)(=O)c1ccccc1C(=O)NC(C)(C)C` [Example 254, N-(tert-butyl)-2-{[(4-methoxypyridin-3-yl)amino]sulfonyl}benzamide], the IC50 in assay [1] was determined as 40 nM; in assay [2], 120 nM. Moreover, the Ki in assay [3] (setting [4]) came out at 284 nM; in assay [3] (setting [5]), 122 nM.

For the compound `COc1ccncc1NS(=O)(=O)c1ccccc1C(=O)NCc1ccc(F)c(C(F)(F)F)c1` [Example 255, N-[4-fluoro-3-(trifluoromethyl)benzyl]-2-{[(4-methoxypyridin-3-yl)amino]sulfonyl}benzamide], the IC50 in assay [1] was 7 nM; in assay [2], 9 nM. Besides, the Ki is 22.7 nM in assay [3] (setting [4]) and 4.06 nM in assay [3] (setting [5]).

Consider `COc1ccncc1NS(=O)(=O)c1ccccc1C(=O)N(C)Cc1ccc(F)c(F)c1` [Example 256, N-(3,4-difluorobenzyl)-2-{[(4-methoxypyridin-3-yl)amino]sulfonyl}-N-methylbenzamide], for which the IC50 in assay [1] turned out to be 14.5 nM; in assay [2] it was 16 nM. The figures for the Ki in assay [3] (setting [4]) and in assay [3] (setting [5]) were 30.2 nM and 5.25 nM, respectively.

As to `COc1ccncc1NS(=O)(=O)c1ccccc1C(=O)NCc1ccc(F)c(F)c1` [Example 257, N-(3,4-difluorobenzyl)-2-{[(4-methoxypyridin-3-yl)amino]sulfonyl}benzamide], the IC50 was determined as 15 nM in assay [1] and 14 nM in assay [2]. Besides, the Ki in assay [3] (setting [4]) is 101 nM; in assay [3] (setting [5]) it was 14.1 nM.

For the compound `COc1cncc(NS(=O)(=O)c2ccccc2C(=O)NCCc2ccccc2F)c1` [Example 258, N-[2-(2-fluorophenyl)ethyl]-2-{[(5-methoxypyridin-3-yl)amino]sulfonyl}benzamide], the IC50 came out at 6 nM in assay [1] and 11 nM in assay [2]. The Ki in assay [3] (setting [4]) turned out to be 50.9 nM; in assay [3] (setting [5]) it was 6.49 nM.

As to `Cc1ccncc1NS(=O)(=O)c1ccccc1C(=O)NCc1ccc(F)c(F)c1` [Example 259, N-(3,4-difluorobenzyl)-2-{[(4-methylpyridin-3-yl)amino]sulfonyl}benzamide], the IC50 in assay [1] and in assay [2] was 15 nM throughout. Besides, the Ki is 135 nM in assay [3] (setting [4]) and 12.5 nM in assay [3] (setting [5]).

As for `CCCCNC(=O)c1ccccc1S(=O)(=O)Nc1cnccc1C` [Example 260, N-butyl-2-{[(4-methylpyridin-3-yl)amino]sulfonyl}benzamide], the concentration for half-maximal inhibition (IC50) in assay [1] is 47 nM; in assay [2], 65 nM. The Ki was 485 nM in assay [3] (setting [4]) and 71.5 nM in assay [3] (setting [5]).

Turning to `COCCNC(=O)c1ccccc1S(=O)(=O)Nc1cccnc1` [Example 261, N-(2-methoxyethyl)-2-[(pyridin-3-ylamino)sulfonyl]benzamide], the IC50 in assay [1] was found to be 256 nM; in assay [2], 627 nM. The Ki was greater than 1000 nM in assay [3] (setting [4]) and 453 nM in assay [3] (setting [5]).

For `COc1cncc(NS(=O)(=O)c2ccccc2C(=O)NCc2ccc(F)c(Cl)c2)c1` [Example 262, N-(3-chloro-4-fluorobenzyl)-2-{[(5-methoxypyridin-3-yl)amino]sulfonyl}benzamide], the results for the IC50 in assay [1] and in assay [2] were 5 nM and 7.5 nM, respectively. The Ki was 10.2 nM in assay [3] (setting [4]) and 1.63 nM in assay [3] (setting [5]).

With `COc1cncc(NS(=O)(=O)c2ccccc2C(=O)NCCc2ccccc2OC)c1` [Example 263, N-[2-(2-methoxyphenyl)ethyl]-2-{[(5-methoxypyridin-3-yl)amino]sulfonyl}benzamide], the IC50 in assay [1] was 9 nM; in assay [2], 11 nM. In addition, the figures for the Ki in assay [3] (setting [4]) and in assay [3] (setting [5]) were 54.7 nM and 5.4 nM, respectively.

Regarding `COc1cncc(NS(=O)(=O)c2ccc(OC3CCNCC3)cc2C(=O)NCc2ccc(F)cc2)c1` [Example 264, N-(4-fluorobenzyl)-2-{[(5-methoxypyridin-3-yl)amino]sulfonyl}-5-(piperidin-4-yloxy)benzamide], the IC50 is 26 nM in assay [1] and 58 nM in assay [2]. The Ki in assay [3] (setting [4]) was 34.7 nM; in assay [3] (setting [5]) it was 9.88 nM.

In the case of `COc1cncc(NS(=O)(=O)c2ccc(OCCN3CCOCC3)cc2C(=O)NCc2ccc(F)cc2)c1` [Example 265, N-(4-fluorobenzyl)-2-{[(5-methoxypyridin-3-yl)amino]sulfonyl}-5-(2-morpholin-4-ylethoxy)benzamide], the IC50 in assay [1] amounted to 23 nM; in assay [2] it was 41 nM. Further, the results for the Ki in assay [3] (setting [4]) and in assay [3] (setting [5]) were 29.6 nM and 12.6 nM, respectively.

Take `COc1cncc(NS(=O)(=O)c2ccc(OCCCN(C)C)cc2C(=O)NCc2ccc(F)cc2)c1` [Example 266, 5-[3-(dimethylamino)propoxy]-N-(4-fluorobenzyl)-2-{[(5-methoxypyridin-3-yl)amino]sulfonyl}benzamide]: the IC50 in assay [1] was 54 nM; in assay [2] it was 109 nM. The figures for the Ki in assay [3] (setting [4]) and in assay [3] (setting [5]) were 145 nM and 26.8 nM, respectively.

As to `COc1cncc(NS(=O)(=O)c2ccc(F)cc2C(=O)N2CCCC(C)C2)c1` (stereo not shown) [Example 267, 4-fluoro-N-(5-methoxypyridin-3-yl)-2-[(3-methylpiperidin-1-yl)carbonyl]benzenesulfonamide], the IC50 worked out at 120 nM in assay [1] and 216 nM in assay [2]. In addition, the Ki in assay [3] (setting [4]) is 270 nM; in assay [3] (setting [5]), 43.2 nM.

For `CCCCCN(C)C(=O)c1cc(Cl)ccc1S(=O)(=O)Nc1cncc(OC)c1` [Example 268, 5-chloro-2-{[(5-methoxypyridin-3-yl)amino]sulfonyl}-N-methyl-N-pentylbenzamide], the IC50 in assay [1] worked out at 44 nM; in assay [2], 63 nM. Further, the Ki in assay [3] (setting [4]) was determined as 110 nM; in assay [3] (setting [5]), 19.4 nM.

For the compound `CCOc1ccncc1NS(=O)(=O)c1ccccc1C(=O)NCCc1ccccc1C` [Example 269, 2-{[(4-ethoxypyridin-3-yl)amino]sulfonyl}-N-[2-(2-methylphenyl)ethyl]benzamide], the results for the IC50 in assay [1] and in assay [2] were 9 nM and 13 nM, respectively. In addition, the Ki was found to be 18.1 nM in assay [3] (setting [4]) and 3.31 nM in assay [3] (setting [5]).

With `CCOc1ccncc1NS(=O)(=O)c1ccccc1C(=O)NC(C)C1CC1` (stereo not shown) [Example 270, N-(1-cyclopropylethyl)-2-{[(4-ethoxypyridin-3-yl)amino]sulfonyl}benzamide], the results for the IC50 in assay [1] and in assay [2] were 22 nM and 52 nM, respectively. The Ki in assay [3] (setting [4]) is 352 nM; in assay [3] (setting [5]), 39.8 nM.

Consider `CCOc1ccncc1NS(=O)(=O)c1ccccc1C(=O)NCCC(C)C` [Example 271, 2-{[(4-ethoxypyridin-3-yl)amino]sulfonyl}-N-(3-methylbutyl)benzamide], for which the IC50 is 18 nM in assay [1] and 21 nM in assay [2]. Further, the figures for the Ki in assay [3] (setting [4]) and in assay [3] (setting [5]) were 118 nM and 17.2 nM, respectively.

Consider `CCCCCN(C)C(=O)c1ccccc1S(=O)(=O)Nc1cnccc1OCC` [Example 272, 2-{[(4-ethoxypyridin-3-yl)amino]sulfonyl}-N-methyl-N-pentylbenzamide], for which the IC50 came to 12 nM in assay [1] and 19 nM in assay [2]. In addition, the figures for the Ki in assay [3] (setting [4]) and in assay [3] (setting [5]) were 67.3 nM and 5.68 nM, respectively.
